≈ marks a conversion by molar mass, not a printed value. Positions of bridges follow the written chain, without caps; N, C: chain ends. Non-standard residues stand in square brackets, D forms with d. Residues, ends and D or L forms follow the SMILES beside them. Lys(N3) = [N-]=[N+]=NCCCC[C@H](N)C(=O)O; hArg = N=C(N)NCCCC[C@H](N)C(=O)O; R8 = C=CCCCCCC[C@@](C)(N)C(=O)O; Cba = N[C@@H](CC1CCC1)C(=O)O; S5 = C=CCCC[C@](C)(N)C(=O)O; βAla = NCCC(=O)O
Tests used:
[1] = Lactate dehydrogenase (LDH) release assay; assay type: cell-based; conditions: LDH: Cytotoxicity assay: EC50
Summary of the method: (§1)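 Geometric means of at least three independent biological runs are given for LDH release measured in HCT116 cells stably expressing a p53-driven β-lactamase reporter. Plating density was 8000 cells/well; DMSO in wells was 0.5%.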

HCT116 cells = assay: Lactate dehydrogenase (LDH) release assay; assay type: cell-based
Summary of the method: as §1

[2] = Solubility assay (kinetic solubility, PBS pH 7); assay type: physicochemical; conditions: pH 7, PBS; for solubility kinetic: pH 7, aqueous buffer, kinetic from dmso stock, read-out: Solubility
Summary of the method: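 Quantitation uses an external standard at 100 µM, prepared from 10 mM stock in acetonitrile:methanol:DMSO (10:80:10). Solubility (µM) = (peak area of sample ÷ peak area of standard) × standard concentration.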

[3] = Experimental LogD (partition coefficient); conditions: for logD: not stated, Partition Coeff LogD
in vitro = conditions: Nanoclick permeability assay EC50
Summary of the method: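 Azido-peptide permeability was read as loss of NanoBRET signal (donor 450 nm, acceptor 610 nm) after adding NanoBret618-azide at 10 μM final.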

SMILES | EC50 [1] | LDH: Cytotoxicity assay: % Effect (HCT116 cells) | solubility kinetic [2] | EPSA (physchem) | logD [3] | Solubility [2] | cell entry EC50 (in vitro) | Partition Coeff LogD [3]
CC(=O)N[C@@H](CC(C)C)C(=O)N[C@H](C(=O)N[C@@H](Cc1ccccc1)C(=O)NC(C)(C)C(=O)N[C@@H](CCC(=O)O)C(=O)N[C@@H](Cc1ccc(O)cc1)C(=O)N[C@@H](Cc1c[nH]c2ccccc12)C(=O)N[C@@H](CCC(N)=O)C(=O)N[C@H](CC(C)C)C(=O)N[C@@H](CC1CCC1)C(=O)NC(C)(C)C(=O)N[C@@H](CO)C(=O)N[C@@H](C)C(=O)N[C@@H](C)C(N)=O)[C@@H](C)O [MP-788] | > 50.6 µM | 8.3% | 83.5 µM (≈ 139 µg/mL) | 196 A^2 | 2.06 | – | – | –
CC(=O)N[C@@H](CCCCN=[N+]=[N-])C(=O)NCCC(=O)N[C@@H](CC(C)C)C(=O)N[C@H](C(=O)N[C@@H](Cc1ccccc1)C(=O)N[C@]1(C)CCCCCCC=CCCC[C@@](C)(C(=O)N[C@@H](CO)C(=O)N[C@@H](C)C(=O)N[C@@H](C)C(N)=O)NC(=O)[C@H](CC2CCC2)NC(=O)[C@@H]2CCCN2C(=O)[C@H](C)NC(=O)[C@H](Cc2c[nH]c3ccccc23)NC(=O)[C@H](Cc2ccc(O)cc2)NC(=O)[C@H](CCC(=O)O)NC1=O)[C@@H](C)O [MP-260] (Ac-[Lys(N3)][βAla]LTF[R8]EYWAP[Cba][S5]SAA-NH2; staple 6-13) | > 50.6 µM | – | – | 197 A^2 | – | Poorly Behaved | 0.246 µM | Poorly Behaved
CC(=O)N[C@H](CC(C)C)C(=O)N[C@H](C(=O)N[C@@H](Cc1ccccc1)C(=O)N[C@]1(C)CCCCCCC=CCCC[C@@](C)(C(=O)N[C@@H](CO)C(=O)N[C@H](C)C(=O)N[C@@H](C)C(N)=O)NC(=O)[C@H](CC2CCC2)NC(=O)[C@H](CC(C)C)NC(=O)[C@H](CCC(N)=O)NC(=O)[C@H](Cc2c[nH]c3ccccc23)NC(=O)[C@H](Cc2ccc(O)cc2)NC(=O)[C@H](CCC(=O)O)NC1=O)[C@@H](C)O [MP-7201] | > 50 µM | 4.51% | 19 µM (≈ 34 µg/mL) | 191 A^2 | 2.8 | – | – | –
CC(=O)N[C@@H](CC(C)C)C(=O)N[C@H](C(=O)N[C@@H](Cc1ccccc1)C(=O)N[C@]1(C)CCCCCCC=CCCC[C@@](C)(C(=O)N[C@@H](CO)C(=O)N[C@@H](C)C(=O)N[C@@H](C)C(N)=O)NC(=O)[C@H](CC2CCC2)NC(=O)[C@H](CC(C)C)NC(=O)[C@H](CCC(N)=O)NC(=O)[C@H](C)NC(=O)[C@H](Cc2ccc(O)cc2)NC(=O)[C@H](CCC(=O)O)NC1=O)[C@@H](C)O [MP-364] (Ac-LTF[R8]EYAQL[Cba][S5]SAA-NH2; staple 4-11) | 16 µM | 68.78% | – | 196 A^2 | – | Poorly Behaved | – | Poorly Behaved
CC(=O)N[C@@H](CC(C)C)C(=O)N[C@H](C(=O)N[C@@H](C)C(=O)N[C@]1(C)CCCCCCC=CCCC[C@@](C)(C(=O)N[C@@H](CO)C(=O)N[C@@H](C)C(=O)N[C@H](C)C(N)=O)NC(=O)[C@H](CC2CCC2)NC(=O)[C@H](CC(C)C)NC(=O)[C@H](CCC(N)=O)NC(=O)[C@H](Cc2c[nH]c3ccccc23)NC(=O)[C@H](Cc2ccc(O)cc2)NC(=O)[C@H](CCC(=O)O)NC1=O)[C@@H](C)O [MP-671] (Ac-LTA[R8]EYWQL[Cba][S5]SA[dA]-NH2; staple 4-11) | > 50.6 µM | 3.06% | 74.3 µM (≈ 127 µg/mL) | 199 A^2 | 2.27 | – | – | –
CC(=O)N[C@@H](CC(C)C)C(=O)N[C@H](C(=O)N[C@@H](Cc1ccccc1)C(=O)NC(C)(C)C(=O)N[C@@H](CCC(=O)O)C(=O)N[C@@H](Cc1ccc(O)cc1)C(=O)N[C@@H](Cc1c[nH]c2ccccc12)C(=O)N[C@H](CCC(N)=O)C(=O)N[C@@H](CC(C)C)C(=O)N[C@@H](CC1CCC1)C(=O)NC(C)(C)C(=O)N[C@@H](CO)C(=O)N[C@@H](C)C(=O)N[C@@H](C)C(N)=O)[C@@H](C)O [MP-786] | > 50.6 µM | 7.785% | 170 µM (≈ 283 µg/mL) | 187 A^2 | 1.99 | – | – | –
CC(=O)N[C@@H](CCCCN=[N+]=[N-])C(=O)NCCC(=O)N[C@@H](CCCCNC(=N)N)C(=O)N[C@H](C(=O)N[C@@H](Cc1ccccc1)C(=O)N[C@]1(C)CCCCCCC=CCCC[C@@](C)(C(=O)N[C@@H](CO)C(=O)N[C@@H](C)C(=O)N[C@@H](C)C(N)=O)NC(=O)[C@H](CC2CCC2)NC(=O)[C@H](CCC(N)=O)NC(=O)[C@H](C)NC(=O)[C@H](Cc2c[nH]c3ccccc23)NC(=O)[C@H](Cc2ccc(O)cc2)NC(=O)[C@H](CCC(=O)O)NC1=O)[C@@H](C)O [MP-6896] (Ac-[Lys(N3)][βAla][hArg]TF[R8]EYWAQ[Cba][S5]SAA-NH2; staple 6-13) | – | – | 2.5 µM (≈ 5.07 µg/mL) | 203 A^2 | 2.79 | – | 1.13 µM | –
CC(=O)N(C)CC(=O)N(C)CC(=O)N(C)CC(=O)N(C)CC(=O)N[C@@H](CC(C)C)C(=O)N[C@H](C(=O)N[C@@H](Cc1ccccc1)C(=O)N[C@]1(C)CCCCCCC=CCCC[C@@](C)(C(=O)N[C@@H](CO)C(=O)N[C@@H](C)C(=O)N[C@@H](C)C(N)=O)NC(=O)[C@H](CC2CCC2)NC(=O)[C@H](CCC(N)=O)NC(=O)[C@H](C)NC(=O)[C@H](Cc2c[nH]c3ccccc23)NC(=O)[C@H](Cc2ccc(O)cc2)NC(=O)[C@H](CCC(=O)O)NC1=O)[C@@H](C)O [MP-361] | > 50.6 µM | 2.48% | 70.7 µM (≈ 143 µg/mL) | 212 A^2 | 2.52 | – | – | –
CC(=O)N[C@@H](CC(C)C)C(=O)N[C@H](C(=O)N[C@@H](Cc1ccccc1)C(=O)NC(C)(C)C(=O)N[C@H](CCC(=O)O)C(=O)N[C@@H](Cc1ccc(O)cc1)C(=O)N[C@@H](Cc1c[nH]c2ccccc12)C(=O)N[C@@H](CCC(N)=O)C(=O)N[C@@H](CC(C)C)C(=O)N[C@@H](CC1CCC1)C(=O)NC(C)(C)C(=O)N[C@@H](CO)C(=O)N[C@@H](C)C(=O)N[C@@H](C)C(N)=O)[C@@H](C)O [MP-789] | > 50.6 µM | 5.465% | 28 µM (≈ 46.6 µg/mL) | 196 A^2 | 2.12 | – | – | –
CC(=O)N[C@H](CC(C)C)C(=O)N[C@H](C(=O)N[C@@H](Cc1ccccc1)C(=O)NC(C)(C)C(=O)N[C@@H](CCC(=O)O)C(=O)N[C@@H](Cc1ccc(O)cc1)C(=O)N[C@@H](Cc1c[nH]c2ccccc12)C(=O)N[C@@H](CCC(N)=O)C(=O)N[C@@H](CC(C)C)C(=O)N[C@@H](CC1CCC1)C(=O)NC(C)(C)C(=O)N[C@@H](CO)C(=O)N[C@@H](C)C(=O)N[C@@H](C)C(N)=O)[C@@H](C)O [MP-787] | > 50.6 µM | 4.125% | 24 µM (≈ 40 µg/mL) | 190 A^2 | 2.16 | – | – | –
CC(=O)N[C@@H](C)C(=O)N[C@@H](C)C(=O)N[C@@H](C)C(=O)N[C@@H](C)C(=O)N[C@@H](CC(C)C)C(=O)N[C@H](C(=O)N[C@@H](Cc1ccccc1)C(=O)N[C@]1(C)CCCCCCC=CCCC[C@@](C)(C(=O)N[C@@H](CO)C(=O)N[C@@H](C)C(=O)N[C@@H](C)C(N)=O)NC(=O)[C@H](CC2CCC2)NC(=O)[C@H](CCC(N)=O)NC(=O)[C@H](C)NC(=O)[C@H](Cc2c[nH]c3ccccc23)NC(=O)[C@H](Cc2ccc(O)cc2)NC(=O)[C@H](CCC(=O)O)NC1=O)[C@@H](C)O [MP-360] | > 50.6 µM | 2.492% | 24.7 µM (≈ 50.1 µg/mL) | 219 A^2 | 3.24 | – | – | –
CC(=O)N[C@@H](CCCCN=[N+]=[N-])C(=O)NCCC(=O)N[C@@H](CC(C)C)C(=O)N[C@H](C(=O)N[C@@H](Cc1ccccc1)C(=O)N[C@]1(C)CCCCCCC=CCCC[C@@](C)(C(=O)N[C@@H](CO)C(=O)N[C@@H](C)C(=O)N[C@@H](C)C(N)=O)NC(=O)[C@H](CC2CCC2)NC(=O)[C@@H]2CCCCNC(=O)CC[C@H](NC1=O)C(=O)N[C@@H](Cc1ccc(O)cc1)C(=O)N[C@@H](Cc1c[nH]c3ccccc13)C(=O)N[C@@H](C)C(=O)N2)[C@@H](C)O [MP-001] (Ac-[Lys(N3)][βAla]LTF[R8]EYWAK[Cba][S5]SAA-NH2; staple 6-13; lactam 7-11) | > 50.7 µM | – | – | 173 A^2 | 3.84 | – | 1.15 µM | –
CC(=O)N[C@H](C)C(=O)N[C@H](C)C(=O)N[C@H](C)C(=O)N[C@H](C)C(=O)N[C@@H](CC(C)C)C(=O)N[C@H](C(=O)N[C@@H](Cc1ccccc1)C(=O)N[C@]1(C)CCCCCCC=CCCC[C@@](C)(C(=O)N[C@@H](CO)C(=O)N[C@@H](C)C(=O)N[C@@H](C)C(N)=O)NC(=O)[C@H](CC2CCC2)NC(=O)[C@H](CCC(N)=O)NC(=O)[C@H](C)NC(=O)[C@H](Cc2c[nH]c3ccccc23)NC(=O)[C@H](Cc2ccc(O)cc2)NC(=O)[C@H](CCC(=O)O)NC1=O)[C@@H](C)O [MP-365] | > 50.6 µM | -0.1776% | 76.3 µM (≈ 155 µg/mL) | 210 A^2 | 2.6 | – | – | –
CC(=O)N[C@@H](CC(C)C)C(=O)N[C@H](C(=O)N[C@@H](Cc1ccccc1)C(=O)N[C@]1(C)CCCCCCC=CCCC[C@@](C)(C(=O)N[C@@H](CO)C(=O)N[C@@H](C)C(=O)N[C@@H](C)C(N)=O)NC(=O)[C@H](CC2CCC2)NC(=O)[C@H](CC(C)C)NC(=O)[C@H](CCC(N)=O)NC(=O)[C@@H](Cc2c[nH]c3ccccc23)NC(=O)[C@H](Cc2ccc(O)cc2)NC(=O)[C@H](CCC(=O)O)NC1=O)[C@@H](C)O [MP-594] | 14.8 µM | 35.22% | 11 µM (≈ 19.7 µg/mL) | 203 A^2 | 2.83 | – | – | –
